Experimental data: article PMC6222819, “Assessment of Binding Interaction between Bovine Lactoferrin and Tetracycline Hydrochloride: Multi-Spectroscopic Analyses and Molecular Modeling” (Molecules : A Journal of Synthetic Chemistry and Natural …, 2018)
Structures can show the parent of a compound that is named as a salt.

Biological target: T1, bovine lactoferrin (bLf) (Bos taurus, UniProt P24627)
T1 construct: gene LTF; 80 kDa; single polypeptide chain
Assay: microscale thermophoresis
Type: binding

T1 sequence (P24627 20-708): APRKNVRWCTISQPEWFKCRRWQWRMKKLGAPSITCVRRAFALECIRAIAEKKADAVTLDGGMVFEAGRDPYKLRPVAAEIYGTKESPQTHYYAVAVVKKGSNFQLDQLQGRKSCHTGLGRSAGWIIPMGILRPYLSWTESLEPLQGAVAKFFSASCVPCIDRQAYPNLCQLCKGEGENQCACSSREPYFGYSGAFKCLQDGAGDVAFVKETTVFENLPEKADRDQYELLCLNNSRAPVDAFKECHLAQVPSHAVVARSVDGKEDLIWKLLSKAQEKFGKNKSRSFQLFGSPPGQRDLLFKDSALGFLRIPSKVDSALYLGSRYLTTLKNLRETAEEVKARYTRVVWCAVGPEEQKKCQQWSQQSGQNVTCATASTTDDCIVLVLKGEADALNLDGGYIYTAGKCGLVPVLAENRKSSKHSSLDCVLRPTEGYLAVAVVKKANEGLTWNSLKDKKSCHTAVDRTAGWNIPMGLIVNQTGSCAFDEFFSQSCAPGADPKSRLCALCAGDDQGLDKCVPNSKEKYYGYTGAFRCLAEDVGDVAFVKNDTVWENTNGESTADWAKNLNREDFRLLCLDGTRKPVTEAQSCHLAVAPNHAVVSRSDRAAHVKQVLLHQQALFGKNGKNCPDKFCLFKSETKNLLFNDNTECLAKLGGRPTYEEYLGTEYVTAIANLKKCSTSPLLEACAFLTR

Compound: CN(C)[C@@H]1C(O)=C(C(N)=O)C(=O)[C@@]2(O)C(O)=C3C(=O)c4c(O)cccc4[C@@](C)(O)[C@H]3C[C@@H]12 [Tetracycline hydrochloride]
- Kd: 35.2 µM
